Source: US20210353593A1 (Chinook Therapeutics, Inc., priority 2019, published 2021)
“Also recorded” adds a separate entry of the source.

Assays:
[1] = tested on: primary human renal mesangial cells (HRMCs); assay: Proliferation (BrdU) of primary human renal mesangial cells stimulated with IgA-containing immune complexes; format: cell-based
Description: Primary human mesangial cells in a culture were stimulated with pathogenic galactose deficient (Gd)-IgA containing immune complexes isolated from human IgA nephropathy patients.
Specifically, pathogenic IgA-containing immune complexes were isolated from serum from either IgA nephropathy patients or age, gender and ethnicity-matched healthy individuals. Frozen serum was purchased from BioIVT and IgA-containing immune complexes were purified using jacalin affinity chromatography. […] Purified IgA-containing immune complexes were concentrated using a 100K Amicon filtration unit and the amount of total IgA and galactose-deficient IgA (Gd-IgA) in the immune complexes was measured by ELISA (ThermoFisher and IBL America, respectively). […] See, e.g., Novak et. al., Kidney International, 67, pp. 504-516; 2005; Novak et. al., Nephrol. Dial. Transplant, 26, pp. 3451-3457; 2011; Liang et. al., Cell Physiol. Biochem., 36, pp. 1793-1808; 2015; Nguyen et. al., Clin. Kidney 1, 12 (2), pp, 232-238; 2019.

[2] = tested on: hallmark gene sets in kidney tissue of g-ddY mice; assay: Gene Set Enrichment Analysis (GSEA) of hallmark gene sets, g-ddY mouse kidney RNA-seq; format: in vivo

Structure (SMILES): CCCCN(CCCC)C(=O)CN1C[C@H](c2ccc3c(c2)OCO3)[C@@H](C(=O)O)[C@@H]1c1ccc(OC)cc1 [Atrasentan, (2R,3R,4S)-4-(1,3-benzodioxol-5-yl)-1-[2-(dibutylamino)-2-oxoethyl]-2-(4-methoxyphenyl)pyrrolidine-3-carboxylic acid]
- basal cell proliferation in HRMCs ([1]; IgA containing serum fractions from healthy controls): no effect
- proliferation of HRMCs induced by IgA containing immune complexes from patients with IgA nephropathy ([1]; immune complexes from three separate IgAN patients, BrdU): reduces the proliferation; also recorded: significantly attenuated the hyperproliferation
- HALLMARK_ADIPOGENESIS NES ([2]; 10 mg/kg/day vs. control): 2.15
- HALLMARK_ALLOGRAFT_REJECTION NES ([2]; 10 mg/kg/day vs. control): −2.25
- HALLMARK_ANDROGEN_RESPONSE NES ([2]; 10 mg/kg/day vs. control): 0.88
- HALLMARK_ANGIOGENESIS NES ([2]; 10 mg/kg/day vs. control): −1.94
- HALLMARK_APICAL_JUNCTION NES ([2]; 10 mg/kg/day vs. control): −1.79
- HALLMARK_APICAL_SURFACE NES ([2]; 10 mg/kg/day vs. control): −1.52
- HALLMARK_APOPTOSIS NES ([2]; 10 mg/kg/day vs. control): −1.59
- HALLMARK_BILE_ACID_METABOLISM NES ([2]; 10 mg/kg/day vs. control): 2.08
- HALLMARK_CHOLESTEROL_HOMEOSTASIS NES ([2]; 10 mg/kg/day vs. control): 1.03
- HALLMARK_COAGULATION NES ([2]; 10 mg/kg/day vs. control): −1.53
- HALLMARK_COMPLEMENT NES ([2]; 10 mg/kg/day vs. control): −1.51
- HALLMARK_DNA_REPAIR NES ([2]; 10 mg/kg/day vs. control): 0.79
- HALLMARK_E2F_TARGETS NES ([2]; 10 mg/kg/day vs. control): −2.07
- HALLMARK_EPITHELIAL_MESENCHYMAL_TRANSITION NES ([2]; 10 mg/kg/day vs. control): −2.47
- HALLMARK_ESTROGEN_RESPONSE_EARLY NES ([2]; 10 mg/kg/day vs. control): −1.27
- HALLMARK_ESTROGEN_RESPONSE_LATE NES ([2]; 10 mg/kg/day vs. control): −1.18
- HALLMARK_FATTY_ACID_METABOLISM NES ([2]; 10 mg/kg/day vs. control): 2.25
- HALLMARK_G2M_CHECKPOINT NES ([2]; 10 mg/kg/day vs. control): −2.15
- HALLMARK_GLYCOLYSIS NES ([2]; 10 mg/kg/day vs. control): 1.62
- HALLMARK_HEDGEHOG_SIGNALING NES ([2]; 10 mg/kg/day vs. control): −1.51
- HALLMARK_HEME_METABOLISM NES ([2]; 10 mg/kg/day vs. control): 1.57
- HALLMARK_HYPOXIA NES ([2]; 10 mg/kg/day vs. control): −1.38
- HALLMARK_IL2_STAT5_SIGNALING NES ([2]; 10 mg/kg/day vs. control): −1.77
- HALLMARK_IL6_JAK_STAT3_SIGNALING NES ([2]; 10 mg/kg/day vs. control): −2.34
- HALLMARK_INFLAMMATORY_RESPONSE NES ([2]; 10 mg/kg/day vs. control): −2.34
- HALLMARK_INTERFERON_ALPHA_RESPONSE NES ([2]; 10 mg/kg/day vs. control): −1.96
- HALLMARK_INTERFERON_GAMMA_RESPONSE NES ([2]; 10 mg/kg/day vs. control): −2.26
- HALLMARK_KRAS_SIGNALING_DN NES ([2]; 10 mg/kg/day vs. control): 1.28
- HALLMARK_KRAS_SIGNALING_UP NES ([2]; 10 mg/kg/day vs. control): −2.24
- HALLMARK_M ITOTIC_SPINDLE NES ([2]; 10 mg/kg/day vs. control): −1.55
- HALLMARK_MTORC1_SIGNALING NES ([2]; 10 mg/kg/day vs. control): 1.11
- HALLMARK_MYC_TARGETS_V1 NES ([2]; 10 mg/kg/day vs. control): −1.17
- HALLMARK_MYC_TARGETS_V2 NES ([2]; 10 mg/kg/day vs. control): −0.780
- HALLMARK_MYOGENESIS NES ([2]; 10 mg/kg/day vs. control): −1.19
- HALLMARK_NOTCH_SIGNALING NES ([2]; 10 mg/kg/day vs. control): 0.83
- HALLMARK_OXIDATIVE_PHOSPHORYLATION NES ([2]; 10 mg/kg/day vs. control): 3.06
- HALLMARK_P53_PATHWAY NES ([2]; 10 mg/kg/day vs. control): −1.12
- HALLMARK_PANCREAS_BETA_CELLS NES ([2]; 10 mg/kg/day vs. control): 0.85
- HALLMARK_PEROXISOME NES ([2]; 10 mg/kg/day vs. control): 1.68
- HALLMARK_PI3K_AKT_MTOR SIGNALING NES ([2]; 10 mg/kg/day vs. control): −0.92
- HALLMARK_PROTEIN_SECRETION NES ([2]; 10 mg/kg/day vs. control): 1.06
- HALLMARK_REACTIVE_OXYGEN_SPECIES_PATHWAY NES ([2]; 10 mg/kg/day vs. control): 1.59
- HALLMARK_SPERMATOGENESIS NES ([2]; 10 mg/kg/day vs. control): 0.89
- HALLMARK_TGF_BETA_SIGNALING NES ([2]; 10 mg/kg/day vs. control): −1.72
- HALLMARK_TNFA_SIGNALING_VIA_NFKB NES ([2]; 10 mg/kg/day vs. control): −2.55
- HALLMARK_UNFOLDED_PROTEIN_RESPONSE NES ([2]; 10 mg/kg/day vs. control): −0.91
- HALLMARK_UV_RESPONSE_DN NES ([2]; 10 mg/kg/day vs. control): −2.19
- HALLMARK_UV_RESPONSE_UP NES ([2]; 10 mg/kg/day vs. control): 1.28
- HALLMARK_WNT_BETA_CATENIN_SIGNALING NES ([2]; 10 mg/kg/day vs. control): −1.02
- HALLMARK_XENOBIOTIC_METABOLISM NES ([2]; 10 mg/kg/day vs. control): 1.95
- HALLMARK_ADIPOGENESIS NES ([2]; 20 mg/kg/day vs. control): 2.26
- HALLMARK_ALLOGRAFT_REJECTION NES ([2]; 20 mg/kg/day vs. control): −2.90
- HALLMARK_ANDROGEN_RESPONSE NES ([2]; 20 mg/kg/day vs. control): 1.03
- HALLMARK_ANGIOGENESIS NES ([2]; 20 mg/kg/day vs. control): −2.19
- HALLMARK_APICAL_JUNCTION NES ([2]; 20 mg/kg/day vs. control): −2.24
- HALLMARK_APICAL_SURFACE NES ([2]; 20 mg/kg/day vs. control): −1.67
- HALLMARK_APOPTOSIS NES ([2]; 20 mg/kg/day vs. control): −2.17
- HALLMARK_BILE_ACID_METABOLISM NES ([2]; 20 mg/kg/day vs. control): 2.39
- HALLMARK_CHOLESTEROL_HOMEOSTASIS NES ([2]; 20 mg/kg/day vs. control): −1.03
- HALLMARK_COAGULATION NES ([2]; 20 mg/kg/day vs. control): −2.11
- HALLMARK_COMPLEMENT NES ([2]; 20 mg/kg/day vs. control): −2.01
- HALLMARK_DNA_REPAIR NES ([2]; 20 mg/kg/day vs. control): 0.83
- HALLMARK_E2F_TARGETS NES ([2]; 20 mg/kg/day vs. control): −2.34
- HALLMARK_EPITHELIAL_MESENCHYMAL_TRANSITION NES ([2]; 20 mg/kg/day vs. control): −2.92
- HALLMARK_ESTROGEN_RESPONSE_EARLY NES ([2]; 20 mg/kg/day vs. control): −1.52
- HALLMARK_ESTROGEN_RESPONSE_LATE NES ([2]; 20 mg/kg/day vs. control): −1.37
- HALLMARK_FATTY_ACID_METABOLISM NES ([2]; 20 mg/kg/day vs. control): 2.51
- HALLMARK_G2M_CHECKPOINT NES ([2]; 20 mg/kg/day vs. control): −2.26
- HALLMARK_GLYCOLYSIS NES ([2]; 20 mg/kg/day vs. control): 1.53
- HALLMARK_HEDGEHOG_SIGNALING NES ([2]; 20 mg/kg/day vs. control): −1.72
- HALLMARK_HEME_METABOLISM NES ([2]; 20 mg/kg/day vs. control): 1.92
- HALLMARK_HYPOXIA NES ([2]; 20 mg/kg/day vs. control): −1.62
- HALLMARK_IL2_STAT5_SIGNALING NES ([2]; 20 mg/kg/day vs. control): −2.20
- HALLMARK_IL6_JAK_STAT3_SIGNALING NES ([2]; 20 mg/kg/day vs. control): −2.92
- HALLMARK_INFLAMMATORY_RESPONSE NES ([2]; 20 mg/kg/day vs. control): −2.96
